Results as given in patent EP3900788A1, “NON-PRODUCTIVE ANGIOGENESIS INHIBITOR FOR USE IN THE TREATMENT OF ALZHEIMER'S DISEASE” (Consejo Superior de Investigaciones Científicas (CSIC), priority 2020, dated 2021).

Test system: APP751SL/+ mice
Assay: Sorafenib treatment of AD mice: angiogenic cell density and Aβ plaques (Thio-S staining) in brain
Format: in vivo
Details: 7-month-old APP751SL/+ mice, Sorafenib treatment 1 month vs vehicle

CNC(=O)c1cc(Oc2ccc(NC(=O)Nc3ccc(Cl)c(C(F)(F)F)c3)cc2)ccn1 [Sorafenib]
Aβ plaque load (Thio-S staining of brain): significantly reduced
mean Aβ plaque area (Thio-S staining of brain): significantly reduced
apparition of Iαvβ3+ cells in the brain (Iαvβ3+ cell density) (p < 0.001): strongly reduced
